The values below come from patent publication US9006442B2, “Cannabinoid receptor modulators” (Lupin Limited, priority 2011, dated 2015).

Like-named read-outs stand apart in the source and are kept apart here. Bounds are passed on as bounds.

The target of test [1] is T1, human CB1 (Homo sapiens, UniProt P21554).
T1 construct: expressed in transfected cells
The experiment in a line: cAMP determination in functional hCB1-HEK stable cells (HTRF). Format: cell-based. Here is the method:
In-Vitro Assay Method for Determination of cAMP in Functional hCB1—HEK Stable Cells:
U.S.A), 400 μg/ml of G418 and lx penstrep. For assay, 0.6-1.0×10^6 hCB1-HEK cells were seeded in T-25 flask and grown to mid-log phase in complete culture medium as mentioned above for 2-3 days. One day prior to assay, cell monolayer was washed once with PBS (pH.7.4) and then serum starved for overnight in DMEM medium containing 0.2% bovine serum albumin (devoid of antibiotics, FBS and penstrep). […] The test is performed in 96^1/2 area black well plates. For agonist testing, 20 μl cells/well were mixed with 20 μl of compound and 10 μl of forskolin (with final concentration of 10 μM) and incubated for 40 min at 25° C. incubator. The plates were then processed for cAMP determination using cAMP Femto-2 HTRF kit (Cisbio, Germany) as per the kit manual.
For orientation: In TR-FRET formats the signal depends on donor and acceptor labels being close together.

Test [2] has as its target hCB2 (Homo sapiens, UniProt P34972). The experiment in a line: cAMP determination in functional hCB2-CHO stable cells (HTRF). Format: cell-based. As to the method: In-Vitro Assay Method for Determination of cAMP in Functional hCB2—CHO Stable Cells:
Recombinant CHO-hCB2 cells (procured from Perkin Elmer Inc. USA) were propagated and maintained in Ham's F-12 complete medium containing 10% heat inactivated FBS (Sigma.UK) and 1× penstrep. For assay, 0.1×10^6 to 1.0×10^6 CHO-hCB2 cells were seeded in T-25 flask and grown to mid-log phase in culture media without antibiotics for 2-3 days. […] The test is performed in 96^1/2 area black well plates. For agonist testing, 20 μl cells/well were mixed with 20 μl of sample and 10 μl of forskolin (with final concentration of 10 μM) and incubated for 20 to 40 min at room temperature in incubator. The plate was then processed for the cAMP determination using cAMP Femto-2 HTRF kit (Cisbio, Germany) as per the manual.
The concentration of compound required to stimulate a half-maximal response (EC50) was determined using the GraphPad Prism software (version 5).

Test [3] relates to rats. The test can be described thus: FCA (Freund's Complete Adjuvant)-induced inflammatory hyperalgesia, paw withdrawal threshold, Dynamic plantar aesthesiometer. The conditions noted are these: mechanical hyperalgesia 3 days post-FCA. Format: in vivo. Here is the method: FCA (Freund's Complete Adjuvant)—Induced Inflammatory Hyperalgesia:
Freund's Complete Adjuvant (FCA), containing heat killed Mycobacterium tuberculosis (2 mg/ml) in incomplete Freund's adjuvant, injected (50 μl) into the plantar region of the paw of rats induces an inflammatory pain. Mechanical hyperalgesia (3 days post-FCA) was assessed by measuring hind paw withdrawal thresholds with Dynamic planter aesthesiometer.

Where [4] appears, read: CHO-hCB2 cells, cAMP, forskolin 10 μM, agonist testing, read-out: EC50 Range.

In general, EC50 refers to the midpoint of the concentration-response curve.

hCB2, sequence (P34972 whole entry): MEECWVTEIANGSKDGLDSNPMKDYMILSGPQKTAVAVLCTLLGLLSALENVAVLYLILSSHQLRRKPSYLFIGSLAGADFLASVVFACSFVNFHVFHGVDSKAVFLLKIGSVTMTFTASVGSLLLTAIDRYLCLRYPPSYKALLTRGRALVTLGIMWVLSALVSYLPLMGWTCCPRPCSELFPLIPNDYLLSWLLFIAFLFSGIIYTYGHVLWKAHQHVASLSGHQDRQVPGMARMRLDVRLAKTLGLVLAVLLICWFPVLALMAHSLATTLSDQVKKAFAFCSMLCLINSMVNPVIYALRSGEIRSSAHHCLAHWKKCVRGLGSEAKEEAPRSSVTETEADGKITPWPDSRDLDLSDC
T1 sequence (P21554 whole entry): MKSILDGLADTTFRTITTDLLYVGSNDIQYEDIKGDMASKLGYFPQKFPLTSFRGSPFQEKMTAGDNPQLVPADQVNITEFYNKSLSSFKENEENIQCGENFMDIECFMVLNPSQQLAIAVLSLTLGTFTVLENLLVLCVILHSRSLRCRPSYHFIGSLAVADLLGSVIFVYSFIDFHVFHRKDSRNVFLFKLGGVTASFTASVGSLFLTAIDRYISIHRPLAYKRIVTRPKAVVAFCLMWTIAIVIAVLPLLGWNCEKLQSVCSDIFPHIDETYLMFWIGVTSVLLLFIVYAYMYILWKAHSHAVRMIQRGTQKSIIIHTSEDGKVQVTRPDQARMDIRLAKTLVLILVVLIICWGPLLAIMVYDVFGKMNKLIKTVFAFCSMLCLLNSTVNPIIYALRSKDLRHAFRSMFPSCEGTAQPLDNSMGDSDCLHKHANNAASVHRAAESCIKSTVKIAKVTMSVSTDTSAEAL

Consider `Cc1cccc2c(Nc3cc(F)cc(F)c3)ncc(CN3CCOCC3)c12` [Example-225, N-(3,5-difluorophenyI)-5-methyl-4-(morpholinomethyl)isoquinolin-1-amine], for which the EC50 in test [1] is under 100 nM. Consider `Cc1cccc2c(Nc3cccc(C(F)(F)F)c3)ccc(C(=O)N3CCCCC3)c12` [Example-143], for which, in test [2], the EC50 is under 10 nM. Besides, in test [3] (dose 10 mg/kg), the “% Improvement (MEAN ± S.E.M.) in Paw withdrawal Threshold, 1 h” value (shortened to “% Improvement … 1 h”) stood at 16.7 ± 15.0%; the “% Improvement (MEAN ± S.E.M.) in Paw withdrawal Threshold, 2 h” value (shortened to “% Improvement … 2 h”) stood at 25.1 ± 17.8%; the “% Improvement (MEAN ± S.E.M.) in Paw withdrawal Threshold, 4 h” value (shortened to “% Improvement … 4 h”) stood at 18.3 ± 18.5%. In turn, `Cc1cccc2c(Nc3cccc(C(F)(F)F)c3)ncc(C(=O)N3CCOCC3)c12` [Example-4, (5-Methyl-1-((3-(trifluoromethyl)phenyl)amino)isoquinolin-4-yl)(morpholino)methanone] registered an EC50 in test [2] of under 10 nM. In addition, in test [3] (dose 10 mg/kg), the “% Improvement … 1 h” value stood at 60.9 ± 12 %; the “% Improvement … 2 h” value stood at 42.9 ± 8.7 %; the “% Improvement … 4 h” value came to 43.9 ± 17.4 %. In test [1], `Cc1cccc2c(Oc3ccc(F)cc3Cl)ncc(C(=O)N3CCOCC3)c12` [Example-56, (1-(2-Chloro-4-fluorophenoxy)-5-methylisoquinolin-4-yl)(morpholino)methanone] showed an EC50 of over 100 nM.

On to `O=C(c1cnc(Nc2cccc(Cl)c2)c2cccc(Cl)c12)N1CCCCC1` [Example-218, (5-Chloro-1-((3-chlorophenyl)amino)isoquinolin-4-yl)(piperidin-1-yl)methanone], for which the EC50 in test [1] is under 100 nM.

As for `Cc1cccc2c(Nc3cccc(C(F)F)c3)ncc(C(=O)N3CCOCC3)c12` [Example-13, (1-(((3-Difluoromethyl)phenyl)amino)-5-methylisoquinolin-4-yl)(morpholino)methanone], the EC50 in test [2] was under 10 nM; in test [1], under 100 nM. As for `Cc1cccc2c(Nc3cccc(Cl)c3)ncc(C(=O)N3CCOCC3)c12` [Example-1, (1-((3-Chlorophenyl)amino)-5-methylisoquinolin-4-yl)(morpholino)methanone], the EC50 in test [2] is under 10 nM; in test [1], over 100 nM. As to `Cc1cccc2c(Nc3cccc(C(F)(F)F)c3F)ncc(C(=O)N(C)C)c12` [Example-257, 1-((2-Fluoro-3-(trifluoromethyl)phenyl)amino)-N,N,5-trimethyl isoquinolin-4-carboxamide], the EC50 in test [2] (setting [4]) was under 10 nM. Further, in test [3] (dose 30 mg/kg), the “% Improvement … 1 h” value is recorded as 44.4 ± 23.3% and the “% Improvement … 2 h” value is 52.8 ± 19.1%.

Consider `Cc1c(Cl)cccc1Nc1ccc(C(=O)N2CCOCC2)c2c(C)cccc12` [Example-155, (4-((3-Chloro-2-methylphenyl)amino)-8-methylnaphthalen-1-yl)(morpholino)methanone], for which the EC50 was under 10 nM in test [2] and under 100 nM in test [1].

Turning to `Cc1cccc2c(Nc3cccc(Cl)c3)ncc(C(=O)N3CCC(F)(F)CC3)c12` [Example-241, (1-((3-Chlorophenyl)amino)-5-methylisoquinolin-4-yl)(4,4-difluoropiperidin-1-yl)methanone], the EC50 in test [1] was under 100 nM. For the molecule `O=C(c1ccc(Nc2cccc(F)c2)c2ccccc12)N1CCOCC1` [Example-183, (4-((3-Fluorophenyl)amino)naphthalen-1-yl)(morpholino)methanone], the EC50 is 10 to 1000 nM in test [2] and over 100 nM in test [1]. For the molecule `Cc1cccc2c(Nc3ccc(F)c(C(F)(F)F)c3)ncc(C(=O)N3CCCCC3)c12` [Example-27, (1-((4-Fluoro-3-(trifluoromethyl)phenyl)amino)-5-methylisoquinolin-4-yl)(piperidin-1-yl)methanone], in test [2], the EC50 was under 10 nM. `Cc1ccc(Nc2ccc(C(=O)N3CCOCC3)c3c(C)cccc23)cc1F` [Example-152, (4-((3-Fluoro-4-methylphenyl)amino)-8-methylnaphthalen-1-yl)(morpholino)methanone] yielded an EC50 in test [2] of under 10 nM.

Consider `Cc1c(F)cccc1Nc1ncc(C(=O)N2CCCCC2)c2c(C)cccc12` [Example-96, (1-((3-Fluoro-2-methylphenyl)amino)-5-methylisoquinolin-4-yl)(piperidin-1-yl)methanone], for which the EC50 in test [2] was under 10 nM. Still for that read-out and setting: the value for `CCN(C)C(=O)c1cnc(Nc2cccc(C(F)(F)F)c2C)c2cccc(Cl)c12` [compound 331, 5-Chloro-N-ethyl-N-methyl-1-((2-methyl-3-(trifluoromethyl)phenyl)amino)isoquinolin-4-carboxamide] was under 10 nM; that for `Cc1c(Cl)cccc1Nc1ncc(C(=O)N2CC3CC(C2)O3)c2c(C)cccc12` [Example-65, 6-Oxa-3-azabicyclo[3.1.1]heptan-3-yl(1-((3-chloro-2-methylphenyl)amino)-5-methylisoquinolin-4-yl)methanone] was under 10 nM.

Consider `Cc1c(Nc2ccc(C(=O)N(C)C)c3c(C)cccc23)cccc1C(F)(F)F` [compound 427, N,N,8-Trimethyl-4-((2-methyl-3-(trifluoromethyl)phenyl)amino)-1-naphthamide], for which the 50% effective concentration (EC50) in test [2] (setting [4]) was under 10 nM. For the molecule `O=C(c1ccc(Nc2cccc(Cl)c2)c2ccccc12)N1CCOCC1` [Example-179, (4-((3-Chlorophenyl)amino)naphthalen-1-yl)(morpholino)methanone], the EC50 in test [2] is under 10 nM; in test [1], over 100 nM. On to `COC(=O)c1cccc(Nc2ccc(C(=O)N3CCCCC3)c3c(C)cccc23)c1` [compound 407, Methyl 3-((5-methyl-4-(piperidin-1-carbonyl)naphthalen-1-yl)amino) benzoate], for which the EC50 in test [2] (setting [4]) is under 10 nM. In the case of `CCN(C)C(=O)c1ccc(Nc2cccc(C)c2C)c2cccc(C)c12` [compound 453, 4-((2,3-Dimethylphenyl)amino)-N-ethyl-N,8-dimethyl-1-naphthamide], the EC50 in test [2] (setting [4]) was under 10 nM. Take `CCN(C)C(=O)c1cnc(Nc2cccc(Cl)c2Cl)c2cccc(Cl)c12` [compound 363, 5-Chloro-1-((2,3-dichlorophenyl)amino)-N-ethyl-N-methyl isoquinolin-4-carboxamide]: the EC50 in test [2] was under 10 nM.

`Cc1cccc2c(Nc3cccc(C(F)(F)F)c3)ccc(C(=O)N3CCOCC3)c12` [Example-134] came in with an EC50 in test [2] of under 10 nM. Further, in test [3] (dose 10 mg/kg), the “% Improvement … 1 h” value was determined as 6.8 ± 8.8%; the “% Improvement … 2 h” value is reported as 25.8 ± 5.2%; the “% Improvement … 4 h” value was −1.6 ± 8.0%.

`Cc1cccc2c(Nc3cccc(Cl)c3)ncc(C(=O)N3CC4CC4C3)c12` (stereo not shown) [Example-75, 3-Azabicyclo[3.1.0]hexan-3-yl(1-((3-chlorophenyl)amino)-5-methylisoquinolin-4-yl)methanone]: in test [2], the EC50 is under 10 nM. Same read-out and setting: the value for `CCN(CC)C(=O)c1cnc(Nc2cccc(Cl)c2F)c2cccc(C)c12` [compound 282, 1-((3-Chloro-2-fluorophenyl)amino)-N,N-diethyl-5-methyl isoquinolin-4-carboxamide] was 10 to 1000 nM. For the molecule `COC(=O)c1cccc(Nc2ccc(C(=O)N3CCOCC3)c3c(C)cccc23)c1C` [compound 410, Methyl 2-methyl-3-((5-methyl-4-(morpholin-4-carbonyl)naphthalen-1-yl)amino)benzoate], the EC50 in test [2] (setting [4]) is under 10 nM. `Cc1cccc2c(Nc3cccc(F)c3F)ccc(C(=O)N3CC4CC(C3)O4)c12` [Example-172, 6-Oxa-3-azabicyclo[3.1.1]heptan-3-yl(4-((2,3-difluorophenyl)amino)-8-methylnaphthalen-1-yl)methanone] had an EC50 in test [2] of under 10 nM. In the case of `CCN(C)C(=O)c1cnc(Nc2cccc(Cl)c2C)c2cccc(Cl)c12` [compound 357, 5-Chloro-1-((3-chloro-2-methylphenyl)amino)-N-ethyl-N-methyl isoquinolin-4-carboxamide], the EC50 in test [2] is under 10 nM.
